# Data as given in patent publication US7615361B2, “Toxicity screening methods” (Ceetox, Inc., priority 2006, dated 2009).
# What was measured:
# [1] = system: H4IIE cells; test: Intracellular total glutathione (GSH); format: cell-based, rat; conditions: rat, 24 h
# Summary of the method: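 Rat hepatoma H4IIE cells were exposed to compound in dosing solutions made in complete culture medium, then harvested for biochemical measurement of intracellular total glutathione as an oxidative-stress marker. Values are exposure-group means, n=3-7.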
# [2] = Cell number (propidium iodide); format: cell-based; conditions: neonatal rat cardiomyocytes; rat cardiomyocytes (CM), 24 HR exposure; read-out: Cell Number TC50
# Method: One test compound (Compound A) was received as dry powder and evaluated for potential cytotoxicity in a battery of in vitro assays. The compound was tested using both rat cardiomyocytes (CM) from rat neonates and a rat hepatoma (H4IIE) cell line. […] Camptothecin and rotenone were included as positive control compounds. The cell supernatant or the cells themselves were harvested for biochemical analysis. General cytotoxicity was evaluated by monitoring membrane integrity, mitochondrial function, cell proliferation, oxidative stress, and apoptosis. In addition, interaction with P-glycoprotein (PgP) on H4IIE cells and solubility of the test compound were also assessed. The means of each exposure group (n=3-7) were calculated for each assay performed. Intra assay variation well-to-well was typically less than 10% with plate to plate variation typically less than 20%.
# Cell Proliferation: Cell proliferation in each well was measured with propidium iodide (PI). […] The 15 nm shift enhances PI fluorescence approximately 20 times while the excitation maxima are shifted 30-40 nm. During method development experiments, it was determined that Triton-X-100 was the best solution to permeabilize the H4IIE cells thereby allowing the PI access to intracellular RNA and DNA. Fluorescence was measured using a Packard Fusion plate reader or equivalent reader at 540 nm excitation and 610 nm emission. […]
# [3] = Intracellular total glutathione (GSH); conditions: human
# Method: Intracellular Glutathione (GSH) Levels: Intracellular glutathione levels were determined essentially as described by Griffith (1980) with modifications. At the end of the exposure period, the medium was removed from the cells and metaphosphoric acid (MPA) was added to each well. Plates were then shaken for 5 min at room temperature and stored at −20° C. until needed.
# The sample plates were thawed just prior to analysis and centrifuged at >2000×g for at least 2 min. Sample aliquots were removed and transferred to a clean 96-well plate along with appropriate standard curve controls. Sample pH was neutralized just prior to analysis and each well received an aliquot of sodium phosphate reaction buffer containing EDTA, DTNB, NADPH, and glutathione reductase. The plates were mixed for 15-30 min at room temperature and glutathione content was determined calorimetrically with a Packard Fusion or equivalent reader at 415 nm.
# Intracellular Glutathione (GSH) Levels: The assay is based on the concept that all GSH is oxidized to GSSG by DTNB reagent. Two molecules of GSH are required to make one molecule of GSSG. Total GSH was determined by reducing GSSG to 2GSH with glutathione reductase. A standard curve was prepared with oxidized glutathione (GSSG) over a range of concentrations. These concentrations are then converted to glutathione equivalents (GSX) essentially by multiplying the GSSG standard concentrations by 2. The amount of GSX expressed as pmoles/well was determined using the standard curve and regression analysis.
# The test compound consisted of two parts mixed in a constant ratio of 5:1. The final test mixture consisted of Test mix 1 and Test mix 2, which were received as frozen solutions. The test mixture was tested in a ratio of 5:1 COMP A in five different cell types which included the following: SK-MEL28, human hepatocytes, HUVEC, C32, and NHEM cells. Cells were seeded into 96-well plates and cultured in medium containing 10% bovine serum. Following an equilibration period of 48 hr, the cells were treated with the test compound mix at concentrations of COMP A (μg/mL)=(250:50), (125:25), (25:12.5), (12.5:2.5), (2.5:1.25), (1.25:0.25), and (0.25:0.05) for 24 hr (overnight) at 37° C. in 5% CO2. […] Following an equilibration period of 4 hr, the cells were treated with the test compound mix at concentrations of COMP A (μg/mL)=(250:50), (125:25), (25:12.5), (12.5:2.5), (2.5:1.25), (1.25:0.25), and (0.25:0.05) for 24 hr (overnight) at 37° C. in 5% CO2.
# Experimental Protocol: The test compounds were shipped on dry ice for testing. The compounds were stored frozen at −80° C. until needed. Dosing solutions were prepared in complete culture medium. SK-MEL28, human hepatocytes, HUVEC, C32, and NHEM cells were used as the test systems. Cells were seeded into 96-well plates and allowed to equilibrate for approximately 48 hr. Following the equilibration period the cells were exposed to the test compound mix at concentrations of COMP A (μg/mL)=(250:50), (125:25), (25:12.5), (12.5:2.5), (2.5:1.25), (1.25:0.25), and (0.25:0.05). Solubility was determined by Nephalometry techniques immediately after dosing and prior to harvesting the cells at 24 hr. Following the exposure period, the cells or their supernatant (culture medium) were analyzed for changes in cell proliferation, membrane leakage, mitochondrial function, oxidative stress, and apoptosis. The resultant exposure concentration response curves were graphed and analyzed for determining the concentration that produced a half maximal response or TC50.
Compound,CC50 [1] [µM],CC50 at 24 h [2] [µM],CC50 at 24 h ([3]; C32 cells) [µM],CC50 at 24 h ([3]; HUVEC cells) [µM],CC50 at 24 h ([3]; human hepatocytes) [µM]
"COc1cccc2c1C(=O)c1c(O)c3c(c(O)c1C2=O)C[C@@](O)(C(=O)CO)C[C@@H]3O[C@H]1C[C@H](N)[C@H](O)[C@H](C)O1 [ADRIAMYCIN, Adriamycin]",48,,,,
"CC[C@@]1(O)C(=O)OCc2c1cc1n(c2=O)Cc2cc3ccccc3nc2-1 [CAMPTOTHECIN, Camptothecin]",,293,1,1,44
